# Assay results reported in US11413278B2, “Compounds and methods for promoting stress resistance” (priority 2015, dated 2022).
# “Also recorded” adds a separate entry of the source. Like-named read-outs stand apart in the source and are kept apart here.
# What was measured:
# Format in all cases: cell-based, human
# [1] = tested on: FOXO3; experiment: qPCR analysis of FOXO3-regulated genes; details: for fold induction at 10 µM: Homo sapiens; for K = Sestrin induction: score; for Induction of at least two of five FOXO3-regulated genes (SOD2, GADD45A, CAT, DDB1, TXNIP): WI-38
# Summary of the method: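 FOXO3 target-gene expression quantified by qPCR normalised to B2M, PPIA and GAPDH, in WI-38 cells after 24 h exposure to 10 μM compound. Some runs used cells first transfected 36 h with 10 nM FOXO3 or NRF2 siRNA and replated ~24 h before dosing.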
# [2] = tested on: mTOR; experiment: mTOR inhibition (RPS6 phosphorylation status), In-Cell Western
# Summary of the method: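 Read-out is In-Cell Western near-infrared imaging of phospho-RPS6 (Ser-235/236) against total RPS6, using overnight 4° C primary staining and DyLight 680/800 secondaries. Compounds were given to WI-38 cells for 24 hrs at three doses: 5, 10 and 20 μM.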
# [3] = tested on: LC3A/B puncta; experiment: Autophagy induction analysis (LC3A/B puncta immuno-staining); details: for Exp. 2, normalized change of nuclei numbers (Less cells): 20X objective, lysosomal LAMP co-staining
# Summary of the method: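 Read-out is LC3A/B puncta intensity per DAPI-positive nucleus, either total puncta (Exp. 1) or puncta colocalizing with LAMP2 lysosomes (Exp. 2). Cells were WI-38, exposed to compounds for 24 hrs before antibody staining overnight at 4° C and automated imaging.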
# [4] = 24 h, Assay 10(m), at 10 uM, qPCR, read-out: Induction of FOXO3-regulated genes: DDB1 normalized fold-change
# [5] = 24 h, Assay 10(m), at 10 uM, qPCR, read-out: Induction of FOXO3-regulated genes: GADD45A normalized fold-change
# [6] = 24 h, Assay 10(m), at 10 uM, qPCR, read-out: Induction of FOXO3-regulated genes: SESN1 normalized fold-change
# [7] = WI-38, 24 h, read-out: SESN1 expression
# [8] = 10 μM, 24 hrs, WI-38 cells, qPCR, normalized to B2M, n = 4, read-out: CAT expression, normalized fold change (FOXO3-regulated gene)
# [9] = 10 μM, 24 hrs, WI-38 cells, qPCR, normalized to B2M, n = 4, read-out: SESN1 expression, normalized fold change (FOXO3-regulated gene)
# [10] = WI-38 cells, 10 μM, 24 hrs, n=4, qPCR normalized by B2M, read-out: DDB1 Normalized fold change
# [11] = WI-38 cells, 10 μM, 24 hrs, n=4, qPCR normalized by B2M, read-out: GADD45A Normalized fold change
# [12] = WI-38 cells, 10 μM, 24 hrs, n=4, qPCR normalized by B2M, read-out: SESN1 Normalized fold change
# [13] = fold change, qPCR, WI-38 cells, 10 μM, 24 hrs, read-out: Summary of effects on FOXO3-regulated genes: CAT
# [14] = fold change, qPCR, WI-38 cells, 10 μM, 24 hrs, read-out: Summary of effects on FOXO3-regulated genes: SESN1
# [15] = qPCR, WI-38 cells, 10 μM, n=4, 24 hrs, normalized by B2M, read-out: CAT Normalized fold change
# [16] = qPCR, WI-38 cells, 10 μM, n=4, 24 hrs, normalized by B2M, read-out: SOD2 Normalized fold change
# [17] = qPCR, WI-38 cells, 10 μM, n=4, 24 hrs, normalized by B2M, read-out: TXNIP Normalized fold change
# [18] = 24 h, Assay 10(m), at 10 uM, qPCR, read-out: Induction of FOXO3-regulated genes: CAT normalized fold-change
# [19] = 24 h, Assay 10(m), at 10 uM, qPCR, read-out: Induction of FOXO3-regulated genes: TXNIP normalized fold-change
# [20] = 10 μM, 24 hrs, WI-38 cells, qPCR, normalized to B2M, n = 4, read-out: DDB1 expression, normalized fold change (FOXO3-regulated gene)
# [21] = 10 μM, 24 hrs, WI-38 cells, qPCR, normalized to B2M, n = 4, read-out: GADD45A expression, normalized fold change (FOXO3-regulated gene)
# [22] = 10 μM, 24 hrs, WI-38 cells, qPCR, normalized to B2M, n = 4, read-out: TXNIP expression, normalized fold change (FOXO3-regulated gene)
# [23] = fold change, qPCR, WI-38 cells, 10 μM, 24 hrs, read-out: Summary of effects on FOXO3-regulated genes: DDB1
# [24] = fold change, qPCR, WI-38 cells, 10 μM, 24 hrs, read-out: Summary of effects on FOXO3-regulated genes: GADD45A
# [25] = fold change, qPCR, WI-38 cells, 10 μM, 24 hrs, read-out: Summary of effects on FOXO3-regulated genes: TXNIP
SMILES,E = Potential FOXO3 Activation ([1]; 2-point score),"fold induction at 10 µM [1, 4]","fold induction at 10 µM [1, 5]","fold induction at 10 µM [1, 8]","fold induction at 10 µM [1, 10]","fold induction at 10 µM [1, 11]","fold induction at 10 µM [1, 12]","fold induction at 10 µM [1, 13]","fold induction at 10 µM [1, 15]","fold induction at 10 µM [1, 16]","fold induction at 10 µM [1, 17]",K = Sestrin induction [1],E = Potential FOXO3 Activation ([1]; summary score),G = mTOR down-regulation ([2]; 2-point score),G = mTOR down-regulation ([2]; summary score),H = Potential Autophagy Induction ([3]; score),H = Potential Autophagy Induction ([3]; summary score),"fold induction at 10 µM [1, 18]","fold induction at 10 µM [1, 20]","fold induction at 10 µM [1, 23]",also measured
Cc1ccc(NC(=O)c2ccc([N+](=O)[O-])o2)cc1C [Gr-1F],0,1.12,0.8,1.35,1.37,1.02,2,1.35,1.35,1.68,1.54,1,0,0,0,0,0,–,–,–,"fold induction at 10 µM [1, 6]: 1.64; fold induction at 10 µM [1, 7]: > 1.5; fold induction at 10 µM [1, 9]: 2; fold induction at 10 µM [1, 14]: 2; Exp. 1, induction of LC3A/B puncta (Up), total intensity normalized by total number of nuclei in the fields ([3]; Exp. 1, 10 μM, 10X objective, WI-38 cells): Up, 151%, p < 0.01; Exp. 2, normalized change of nuclei numbers (Less cells) ([3]; Exp. 2, 10 μM, WI-38 cells): Less cells, 82%,; Exp. 2, normalized change of nuclei numbers (Less cells) ([3]; Exp. 2, 20 μM, WI-38 cells): Less cells, 73%,"
COc1ccc(C(=O)/C=C/c2cccc(Cl)c2)c(OC)c1 [Gr-4C],0,1.51,1.23,1.19,1.51,1.23,1.42,1.19,1.19,1.04,0.179,0,0,0,0,0,0,1.19,1.51,1.51,"Induction of at least two of five FOXO3-regulated genes (SOD2, GADD45A, CAT, DDB1, TXNIP) ([1]; 10 μM, 24 hrs): significant induction; also recorded: significant, induction; fold induction at 10 µM [1, 6]: 1.42; fold induction at 10 µM [1, 19]: 0.18; fold induction at 10 µM [1, 21]: 1.23; fold induction at 10 µM [1, 9]: 1.42; fold induction at 10 µM [1, 22]: 0.18; fold induction at 10 µM [1, 24]: 1.23; fold induction at 10 µM [1, 14]: 1.42; fold induction at 10 µM [1, 25]: 0.18"
O=C(NCc1cccnc1)/C(=C/c1ccc(-c2ccc(Cl)cc2)o1)S(=O)(=O)c1ccccc1 [Gr-7C],2,1.36,10.9,1.43,1.36,10.9,1.28,1.43,1.43,2.68,0.068,0,2,2,2,0,0,1.43,1.36,1.36,"SOD2 expression, normalized fold change (FOXO3-regulated gene) ([1]; 10 μM, 24 hrs, WI-38 cells, qPCR, normalized to B2M, n = 4): SOD2 2.67, fold; Potential FOXO3 Activation (>=2 target genes induced, by >=1.5-fold) ([1]; Assay 11(n)): YES; fold induction at 10 µM ([1]; 24 h, Assay 10(m), at 10 uM, qPCR, read-out: Induction of FOXO3-regulated genes: SOD2 normalized fold-change): 2.67; fold induction at 10 µM [1, 19]: 0.07; fold induction at 10 µM [1, 21]: 10.9; fold induction at 10 µM [1, 22]: 0.07; fold induction at 10 µM [1, 24]: 10.9; fold induction at 10 µM [1, 25]: 0.07; Summary of effects on FOXO3-regulated genes: SOD2 ([1]; fold change, qPCR, WI-38 cells, 10 μM, 24 hrs): SOD2 2.67,; mTOR down-regulation by p-RPS6 assays ([2]; Assay 14(q), at 5 uM, 10 uM & 20 uM): YES; Exp. 1, normalized reduction in p-RPS6/RPS6 ratio ([2]; Exp. 1, In-Cell Western, n=4): ~80% (−), at 20 μM; Exp. 3, normalized reduction in p-RPS6/RPS6 ratio ([2]; Exp. 3, In-Cell Western, n=4): ~40% (−), at 20 μM; Exp. 3, normalized reduction in p-RPS6/RPS6 ratio ([2]; Exp. 3, at 5 μM, In-Cell Western, n=4): ~38% (−), at 5 μM;; mTOR inhibition (p-RPS6/RPS6), qualitative ([2]; In-Cell Western): consistently reduced the ratios"
COC(=O)CCc1sc2c(c1[N+](=O)[O-])NC(=O)CCC2 [O20],0,1.25,–,1.35,1.25,1.04,1.73,1.35,1.35,1.09,1.12,1,0,0,0,0,0,1.35,1.25,1.25,"Induction of at least two of five FOXO3-regulated genes (SOD2, GADD45A, CAT, DDB1, TXNIP) ([1]; 10 μM, 24 hrs): significant induction; also recorded: significant, induction; fold induction at 10 µM [1, 6]: 1.73; fold induction at 10 µM [1, 7]: > 1.5; fold induction at 10 µM [1, 9]: 1.73; fold induction at 10 µM [1, 14]: 1.73"
COc1ccc(C(=O)/C=C/c2ccc(F)cc2)c(OC)c1 [Gr-4A],0,1.2,–,1.26,1.2,0.981,1.12,1.26,1.26,0.98,0.819,0,0,0,0,0,0,1.26,1.2,1.2,"Induction of at least two of five FOXO3-regulated genes (SOD2, GADD45A, CAT, DDB1, TXNIP) ([1]; 10 μM, 24 hrs): significant induction; also recorded: significant, induction"
CCc1ccc(Oc2nc3ccccn3c(=O)c2/C=C(\C#N)C(=O)NC2CCCCC2)cc1 [Gr-5A],0,–,–,–,1.2,0.841,1.38,–,1.17,1.12,1.14,0,0,0,0,0,0,–,–,–,–
